From ChEMBL document CHEMBL4619799, “Mechanistic Insight into Antiretroviral Potency of 2'-Deoxy-2'-β-fluoro-4'-azidocytidine (FNC) with a Long-Lasting Effect on HIV-1 Prevention” (J Med Chem, 2020)
The source made the active and inactive calls. The calls are words filed in the database; no cut-off is given here.

Legend:
[1] = Cmax in monkey plasma at 6 mg/kg, po administered as single dose measured after 24 hrs by LC-MS/MS analysis; format: ADME, organism-based, Macaca mulatta; parameters: dose 6 mg/kg, route oral; conditions: rhesus monkey
[2] = test system: Human immunodeficiency virus 1; test: Synergistic antiviral activity against JRFL pseudotyped HIV1 infected in human Hut/CCR5 cells assessed as combination index in presence of rilpivirine by luciferase reporter gene based assay; format: functional
[3] = Elimination half life in monkey PBMC assessed as FNC-TP level at 1 mg/kg, po administered as single dose by LC-MS/MS analysis; format: ADME, organism-based, Macaca mulatta; conditions: rhesus monkey, in vivo
[4] = Cytotoxicity against HEK293 cells assessed as cell viability by MTT assay; format: cell-based; conditions: human
[5] = test system: Human immunodeficiency virus 1; test: Antiviral activity against JRFL pseudotyped HIV1 infected in human Hut/CCR5 cells assessed as time needed to reach 50% reduction of virus infection at 0.1 nM incubated with cells for 4 hrs prior to compound washout followed by viral infection and measured after 72 hrs by luciferase reporter gene assay; format: functional
[6] = Elimination half life in monkey PBMC assessed as FNC-TP level at 6 mg/kg, po administered as single dose by LC-MS/MS analysis; format: ADME, organism-based, Macaca mulatta; conditions: rhesus monkey, in vivo
[7] = Selectivity index, ratio of CC50 for human Hut/CCR5 cells to EC50 for antiviral activity against JRFL pseudotyped HIV1 infected in human Hut/CCR5 cells; format: toxicity, cell-based; conditions: read-out: Ratio CC50/EC50
[8] = Effect on CD69 surface expression in IL2-induced human PBMC-derived CD4-positive T cells at 100 nM measured after 48 hrs by immunostaining based flow cytometry; format: ADME; conditions: 0.1 µM
[9] = Effect on CD25 surface expression in IL2-induced human PBMC-derived CD14-positive monocytes at 100 nM measured after 48 hrs by immunostaining based flow cytometry; format: ADME; conditions: 0.1 µM
[10] = Cmax in monkey plasma at 1 mg/kg, po administered as single dose by LC-MS/MS analysis; format: ADME, organism-based, Macaca mulatta; parameters: dose 1 mg/kg, route oral; conditions: rhesus monkey
[11] = Binding affinity to HIV1 Vif and CBFbeta-ELOB-ELOC complex (unknown origin) assessed as compound-complex adduct formation measured after 150 secs by CM5 chip based assay
[12] = Tmax in monkey PBMC assessed as FNC-TP level at 6 mg/kg, po administered as single dose by LC-MS/MS analysis; format: ADME, organism-based, Macaca mulatta; conditions: rhesus monkey, in vivo
[13] = test system: Human immunodeficiency virus 1; test: Antiviral activity against HIV1 infected patient assessed as […] in CD4-positive T cell count at 4 mg administered daily for 7 days measured 24 hrs post-last dose by immunostaining based flow cytometry analysis; format: functional, organism-based
[14] = Effect on HLA-DR surface expression in IL2-induced human PBMC-derived CD4-positive T cells at 100 nM measured after 48 hrs by immunostaining based flow cytometry; format: ADME; conditions: 0.1 µM
[15] = Ratio of Cmax in monkey plasma at 6 mg/kg, po administered as single dose measured after 1 hr to Cmax in monkey plasma at 6 mg/kg, po administered as single dose measured after 24 hrs; format: ADME, organism-based, Macaca mulatta; conditions: rhesus monkey, in vivo
[16] = AUC (0 to 24 hrs) in monkey PBMC assessed as FNC-TP level at 6 mg/kg, po administered as single dose by LC-MS/MS analysis; format: ADME, organism-based, Macaca mulatta; parameters: dose 6 mg/kg, time < 24 hr, route oral; conditions: rhesus monkey, in vivo
[17] = Effect on CD25 surface expression in IL2-induced human PBMC-derived CD4-positive T cells at 100 nM measured after 48 hrs by immunostaining based flow cytometry; format: ADME; conditions: 0.1 µM
[18] = test system: Human immunodeficiency virus 1; test: Antiviral activity against JRFL pseudotyped HIV1 infected in human Hut/CCR5 cells preincubated for 3 hrs followed by compound washout and subsequent compound redosing and measured after 72 hrs by luciferase reporter gene based assay; format: functional, organism-based; conditions: Human immunodeficiency virus 1, Hut/CCR5
[19] = AUC (0 to 24 hrs) in monkey PBMC assessed as FNC-TP level at 1 mg/kg, po administered as single dose by LC-MS/MS analysis; format: ADME, organism-based, Macaca mulatta; parameters: time < 24 hr, dose 1 mg/kg, route oral; conditions: rhesus monkey, in vivo
[20] = Effect on HLA-DR surface expression in IL2-induced human PBMC-derived CD14-positive monocytes at 100 nM measured after 48 hrs by immunostaining based flow cytometry; format: ADME; conditions: 0.1 µM
[21] = test system: Human immunodeficiency virus 1; test: Potency index, ratio of lamivudine EC50 to test compound EC50 for antiviral activity against VSVG pseudotyped HIV1 infected in HEK293 cells; format: functional
[22] = test system: Human immunodeficiency virus 1; test: Antiviral activity against JRFL pseudotyped HIV1 infected in human Hut/CCR5 cells assessed as time needed to reach 50% reduction of virus infection at 1 nM incubated with cells for 4 hrs prior to compound washout followed by viral infection and measured after 72 hrs by luciferase reporter gene assay; format: functional
[23] = AUC (0 to 24 hrs) in monkey plasma at 1 mg/kg, po administered as single dose by LC-MS/MS analysis; format: ADME, organism-based, Macaca mulatta; parameters: time < 24 hr, dose 1 mg/kg, route oral; conditions: rhesus monkey
[24] = Drug metabolism in human PBMC-derived CD14-positive monocytes assessed as FNC-TP formation at 350 nM measured after 4 hrs by LC-MS/MS analysis; format: ADME; conditions: 0.35 µM
[25] = Tmax in monkey plasma at 1 mg/kg, po administered as single dose by LC-MS/MS analysis; format: ADME, organism-based, Macaca mulatta; conditions: rhesus monkey
[26] = Cmax in monkey PBMC assessed as FNC-TP level at 6 mg/kg, po administered as single dose by LC-MS/MS analysis; format: ADME, organism-based, Macaca mulatta; parameters: dose 6 mg/kg, route oral; conditions: rhesus monkey, in vivo
[27] = Tmax in monkey PBMC assessed as FNC-TP level at 1 mg/kg, po administered as single dose by LC-MS/MS analysis; format: ADME, organism-based, Macaca mulatta; conditions: rhesus monkey, in vivo
[28] = Binding affinity to HIV1 Vif and CBFbeta-ELOB-ELOC complex (unknown origin) by CM5 chip based assay
[29] = Cmax in monkey plasma at 6 mg/kg, po administered as single dose by LC-MS/MS analysis; format: ADME, organism-based, Macaca mulatta; parameters: dose 6 mg/kg, route oral; conditions: rhesus monkey
[30] = Cytotoxicity against human Hut/CCR5 cells assessed as reduction in cell viability measured after 72 hrs by MTT assay; format: cell-based
[31] = Cmax in monkey PBMC assessed as FNC-TP level at 1 mg/kg, po administered as single dose by LC-MS/MS analysis; format: ADME, organism-based, Macaca mulatta; parameters: dose 1 mg/kg, route oral; conditions: rhesus monkey, in vivo
[32] = Tmax in Sprague-Dawley rat thymus at 0.5 mg/kg, po administered as single dose via gavage by LC-MS/MS analysis; format: ADME, organism-based
[33] = test system: Human immunodeficiency virus 1; test: Antiviral activity against HIV1 infected patient assessed as reduction in plasma viremia at 4 mg administered daily for 7 days measured 24 hrs post-last dose by qRT-PCR analysis; format: functional, organism-based
[34] = test system: Human immunodeficiency virus 1; test: Synergistic antiviral activity against JRFL pseudotyped HIV1 infected in human Hut/CCR5 cells assessed as combination index in presence of dolutegravir by luciferase reporter gene based assay; format: functional
[35] = Cytotoxicity against human Hut/CCR5 cells assessed as reduction in cell viability at 0.1 to 10 nM measured after 120 hrs by MTT assay; format: cell-based; conditions: 0.01 µM
[36] = Drug metabolism in human PBMC-derived CD4-positive T cells assessed as FNC-TP formation at 350 nM measured after 4 hrs by LC-MS/MS analysis; format: ADME; conditions: 0.35 µM
[37] = Effect on CD69 surface expression in IL2-induced human PBMC-derived CD14-positive monocytes at 100 nM measured after 48 hrs by immunostaining based flow cytometry; format: ADME; conditions: 0.1 µM
[38] = Tmax in monkey plasma at 6 mg/kg, po administered as single dose by LC-MS/MS analysis; format: ADME, organism-based, Macaca mulatta; conditions: rhesus monkey

[N-]=[N+]=N[C@]1(CO)O[C@@H](n2ccc(N)nc2=O)[C@@H](F)[C@@H]1O [RO-0622]
Cmax [1]: 6.5 nM | CI50 [2]: 0.113 | CI75 [2]: 0.0902 | CI90 [2]: 0.07208 | CI95 [2]: 0.06194 | beta t1/2 [3]: 133.15 h | CC50 [4]: ≥ 25000 nM | Time [5]: 68.6 to 68.63 h | beta t1/2 [6]: 112.4 h | selectivity ratio [7]: 25000 | Activity [8]: Non-Toxic | Activity [9]: Non-Toxic | Cmax [10]: 196 nM | Activity [11]: 36% | Tmax [12]: 6 h | Activity [13]: inactive | Activity [14]: Non-Toxic | Ratio [15]: 320 | AUC [16]: 0.24922 µM·h | Activity [17]: Non-Toxic | EC50 [18]: 0.0136 nM | AUC [19]: 0.09933 µM·h | Activity [20]: Non-Toxic | Ratio EC50 [21]: 4700 | Time [22]: 83.14 h | AUC(0-t) at 24 h [23]: 0.499 µM·h | Drug metabolism [24]: Metabolite_Detected | Tmax [25]: 1 h | Cmax [26]: 4.07 nM | Tmax [27]: 6 h | Kd [28]: 87 nM | Cmax [29]: 2070 nM | CC50 at 72 h [30]: 340 nM | Cmax [31]: 2.1 nM | Tmax [32]: 7 to 12 h | Activity [33]: Active | CI50 [34]: 0.01704 | CI75 [34]: 0.01929 | CI90 [34]: 0.02209 | CI95 [34]: 0.0244 | Activity [35]: Non-Toxic | Drug metabolism [36]: Metabolite_Detected | Activity [37]: Non-Toxic | Tmax [38]: 1 h
